Measurements published in US20230095103A1, “COMPOSITIONS AND METHODS CONTAINING REDUCED NICOTINAMIDE RIBOSIDE FOR PREVENTION AND TREATMENT OF LUNG DISEASES AND CONDITIONS” (SOCIETE DES PRODUITS NESTLE S.A., priority 2020, published 2023).
Structures can show the parent of a compound that is named as a salt. Where two headings read alike, the source gives them in different places.

Legend:
[1] = molecular target: T1, adenosine kinase (AK) (Mus musculus, UniProt P55264); test: NRH-induced NAD+ synthesis with adenosine kinase inhibitors in AML12 cells; type: cell-based; details: for effect of AK inhibitor on the action of NRH (NAD+ synthesis): inhibitor given before NRH treatment
T1 construct: endogenous in cells; host or cells: AML12 cells
Protocol: AML12 cells were treated with an adenosine kinase inhibitor (5-IT; […]) for 1 hour prior to NRH treatment at the doses indicated. Then, 1 hour later, acidic extracts were obtained to measure NAD^+ levels. All values in the figure are expressed as mean+/−SEM of 3 independent experiments. * indicates statistical difference at p<0.05 vs. the respective vehicle treated group.

[2] = type: in vivo, mice
Protocol: 8 week-old C57BI/6NTac mice were orally gavaged with either saline (as vehicle), NR (500 mg/kg) or NRH (500 mg/kg). After 1 hour, liver, skeletal muscle and kidney NAD+ levels were evaluated. All results are expressed as mean+/−SEM of n=5 mice per group. * indicates statistical difference at p<0.05 vs. vs. saline-treated mice. # indicates statistical difference at p<0.05 vs. NR treated mice.
Oral administration of NRH led to very similar results to those observed after IP administration. […] NRH was detectable in plasma 1 h after oral administration. In contrast, NR levels were undetectable at 1 h after NR administration.

[3] = tested on: intracellular NRH, NMNH, NR and NMN; test: Intracellular NAD-related metabolites after NRH or NR treatment; type: cell-based; details: for intracellular detection of NRH and NMNH: 5 minutes after treatment
Text: (§1) Levels of NRH and other NAD-related metabolites in biological samples were obtained by using a cold liquid-liquid extraction using a mixture of methanol:water:chloroform in 5:3:5 (v/v), from which the polar phase was recovered for hydrophilic interaction ultra-high performance liquid chromatography mass spectrometry (UHPLC-MS) analysis. The UHPLC consisted of a binary pump, a cooled autosampler, and a column oven (DIONEX Ultimate 3000 UHPLC+ Focused, Thermo Scientific), connected to a triple quadrupole spectrometer (TSQ Vantage, Thermo Scientific) equipped with a heated electrospray ionisation (H-ESI) source. Of each sample, 2 μL were injected into the analytical column (2.1 mm×150 mm, 5 μm pore size, 200 Å HILICON iHILIC®-Fusion(P)), guarded by a pre-column (2.1 mm×20 mm, 200 Å HILICON iHILIC®-Fusion(P) Guard Kit) operating at 35° C. The mobile phase (10 mM ammonium acetate at pH 9, A, and acetonitrile, B) was pumped at 0.25 mL/min flow rate over a linear gradient of decreasing organic solvent (0.5-16 min, 90-25% B), followed by re-equilibration for a total run time of 30 min. The MS operated in positive mode at 3500 V with multiple reaction monitoring (MRM). The software Xcalibur v4.1.31.9 (Thermo Scientific) was used for instrument control, data acquisition and processing. Retention time and mass detection was confirmed by authentic standards.
A path in which NRH would be converted to NMNH, then to NADH and this would be finally oxidized to NAD+.

[4] = Stability of NRH or NR spiked in isolated mouse plasma; type: in vitro ADME
Protocol: (§2) NR degradation to NAM has been proposed as a limitation for its pharmacological efficacy. To evaluate whether NRH was also susceptible to degradation to NAM, we spiked NRH or NR in isolated mouse plasma. […] We also tested the stability of NRH in other matrixes. […] Finally, we also certified NRH stability in water (pH=7, at room temperature) for 48 h.

[5] = Intraperitoneal injection of NR or NRH in mice: tissue NAD+ and circulating metabolites; type: in vivo; details: for NAD+ levels in liver, muscle and kidney: mice, IP 500 mg/kg, after 1 h
Protocol: The above results prompted us to test whether NRH could act as an effective NAD+ precursor in vivo. For this, we first intraperitoneally (IP) injected mice with either NR or NRH (500 mg/kg). […] Importantly, NRH was detectable in circulation after IP injection.

[6] = Stability in FBS supplemented media; type: in vitro ADME
Protocol: as §2

[7] = tested on: NRK1; test: NAD+ levels in primary hepatocytes from control or NRK1 knockout mice; details: after 1 hour of treatment
[8] = type: physicochemical
Protocol: as §2

[9] = molecular target: T2, NAMPT (Mus musculus, UniProt Q99KQ4); test: NRH action in the presence of the NAMPT inhibitor FK866; type: cell-based; details: with FK866, a NAMPT inhibitor
T2 construct: endogenous in cells

[10] = tested on: INS1-cells; test: NAD+ levels in INS1-cells after NRH treatment; type: cell-based
Protocol: (§3) The ability of NRH to potently increase NAD+ was tested as well in other cell type models.

[11] = set-up: species or system mice; details: mouse, in vivo, 250 mg/kg
Protocol: 8 week-old C57BI/6NTac mice were orally gavaged with either saline (as vehicle), and NRH (250 mg/kg). After 2 hours, liver, skeletal muscle and kidney NRH levels were evaluated. All results are expressed as mean+/−SEM of n=4 mice per group, as areas under the signal by LC-MS analysis, corrected by total protein amount of tissue.

[12] = tested on: Salmonella enterica serovar Typhimurium; test: Anti-bacterial response of monocyte-derived macrophages against Salmonella (CFU counts); type: cell-based; details: 0.01 mM NRH for 42 h prior to infection, MOI 10
Protocol: Monocyte-derived macrophages were treated with 0.01 mM NRH for 42 h prior to infection with Salmonella enterica serovar Typhimurium for 1 h using a multiplicity of infection of 10. Following infection, macrophages were treated with gentamicin for 2 h before cell lysis. Values show absolute colony forming unit (CFU) counts with each dot representing one donor and each line representing paired samples. Graphs show pooled data of 2 independent experiments with 2-3 donors/experiment.

[13] = tested on: C2C12 myotubes; test: NAD+ levels in C2C12 myotubes after NRH treatment; type: cell-based
Protocol: as §3

[14] = tested on: 3T3 fibroblasts; test: NAD+ levels in 3T3 fibroblasts after NRH treatment; type: cell-based
Protocol: as §3

[15] = tested on: AML12 hepatocytes; test: Intracellular NAD+ levels in AML12 hepatocytes after NRH or NR treatment (dose-response, time course); type: cell-based
Text: as §1
Even at such relatively low dose, NRH achieved similar increases in intracellular NAD+ levels to those reached with NR at 50-fold higher concentrations. NRH achieved maximal effects on NAD+ synthesis around the millimolar range, managing to increase intracellular NAD+ levels by more than 10-fold.
NRH actions were also extremely fast (FIG. 3), as significant increases in NAD+ levels were observed within 5 minutes after NRH treatment.

[16] = tested on: equilibrative nucleoside transporters (ENTs); test: NRH-induced NAD+ synthesis under ENT blockade with NBTI; type: cell-based; details: in the presence of NBTI
Text: In order to understand the exact path by which NRH synthesizes NAD+, we initially evaluated whether NRH, could be transported into the cell by equilibrative nucleoside transporters (ENTs).

[17] = tested on: NMNAT; test: NRH-induced NAD+ synthesis with the NMNAT inhibitor gallotannin; type: cell-based
Text: As a follow-up step, NMNAT enzymes could catalyze the transition from NMNH to NADH.

[18] = isolated mouse plasma, 2 h of incubation

T1 sequence (P55264 whole entry): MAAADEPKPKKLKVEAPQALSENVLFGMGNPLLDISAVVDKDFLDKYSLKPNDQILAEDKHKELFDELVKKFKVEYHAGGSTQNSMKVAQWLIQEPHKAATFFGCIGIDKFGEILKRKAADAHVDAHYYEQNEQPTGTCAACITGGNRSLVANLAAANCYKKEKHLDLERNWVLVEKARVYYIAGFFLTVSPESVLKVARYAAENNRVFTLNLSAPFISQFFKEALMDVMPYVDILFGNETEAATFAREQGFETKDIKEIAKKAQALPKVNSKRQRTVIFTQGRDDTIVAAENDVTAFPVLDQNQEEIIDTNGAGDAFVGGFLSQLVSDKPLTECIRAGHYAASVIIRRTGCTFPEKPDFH
T2 sequence (Q99KQ4 whole entry): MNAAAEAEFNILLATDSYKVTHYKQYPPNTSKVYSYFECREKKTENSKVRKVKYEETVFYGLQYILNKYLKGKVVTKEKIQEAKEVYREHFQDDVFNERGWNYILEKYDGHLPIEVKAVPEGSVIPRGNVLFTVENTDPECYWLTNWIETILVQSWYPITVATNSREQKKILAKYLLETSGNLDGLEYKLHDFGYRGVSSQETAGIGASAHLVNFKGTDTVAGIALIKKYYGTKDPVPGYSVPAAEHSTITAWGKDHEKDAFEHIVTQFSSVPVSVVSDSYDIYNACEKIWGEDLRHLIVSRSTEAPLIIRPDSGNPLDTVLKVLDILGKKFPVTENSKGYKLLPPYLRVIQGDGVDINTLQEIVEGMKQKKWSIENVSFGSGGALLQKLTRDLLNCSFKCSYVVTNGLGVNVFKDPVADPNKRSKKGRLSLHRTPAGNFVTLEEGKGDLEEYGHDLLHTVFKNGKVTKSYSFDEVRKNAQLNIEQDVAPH

Nc1ncnc2c1c(I)cn2[C@@H]1O[C@H](CO)[C@@H](O)[C@H]1O [5-IT, 5-iodotubercidin]
formation of NR and NMN after NRH treatment ([1]; 5-IT treatment): prevented
effect of AK inhibitor on the action of NRH (NAD+ synthesis) [1]: fully ablated the action of NRH

Nc1ncnc2nc(-c3ccc(N4CCOCC4)nc3)cc(-c3cccc(Br)c3)c12 [ABT-702]
effect of AK inhibitor on the action of NRH (NAD+ synthesis) [1]: confirmed

NC(=O)c1ccc[n+]([C@@H]2O[C@H](CO)[C@@H](O)[C@H]2O)c1 [NR, 1-b-D-ribofuranosyl-3-pyridinecarboxamide salt, reference compound]
circulating NAM after NR treatment relative to NRH treatment ([2]; C57BI/6NTac, mouse, in vivo, po, 1 h): −4 fold
intracellular detection of NRH and NMNH [3]: not
generation of NAM in plasma [4, 18]: increase in NAM
levels of the compound in plasma [4, 18]: decayed
NAD+ levels in liver, muscle and kidney [5]: increased
degradation to NAM ([6]; FBS supplemented media): occurs
NAD+ levels in NRK1 KO derived primary hepatocytes [7]: failed to increase NAD+ levels

NC(=O)C1=CN([C@@H]2O[C@H](CO)[C@@H](O)[C@H]2O)C=CC1 [NRH, dihydro-1-beta-D-ribofuranosyl-3-pyridinecarboxamide]
stability in water [8]: 48 h
dependence of NRH action on NAMPT [9]: NAMPT-independent
effect on hepatic NAD+ levels ([2]; mice, oral administration, compared with NR): more potent effect on hepatic NAD+ levels than NR
NAD+ levels [10]: highly elevated NAD+ levels
NRH in liver, kidney and muscle [11]: found intact, in high levels
intracellular detection of NRH and NMNH [3]: could be detected
increase in intracellular NR and NMN ([3]; after NRH treatment, compared with NR): greater than that triggered by NR itself
anti-bacterial macrophage response (CFU counts) [12]: able to augment anti-bacterial macrophage response
NAD+ levels [13]: highly elevated NAD+ levels
generation of NMNH, NADH and NAD+ from NRH ([1]; upon inhibition of AK, metabolomic analyses): fully blunted
NAD+ levels [14]: highly elevated NAD+ levels
NR production in plasma [4]: did not lead to NR production
time to significant increase in NAD+ levels after treatment ([15]; AML12 hepatocytes, FIG. 3): ≤ 5 min
increase of intracellular NAD+ levels at maximal effect ([15]; AML12 hepatocytes, around the millimolar range): more than 10 fold
ability to increase intracellular NAD+ ([15]; AML12 hepatocytes, compared with NR): superior to that of NR
concentration at which NAD+ levels are significantly increased ([15]; AML12 hepatocytes, dose-response, FIG. 2): 10 µM
NR concentration needed for similar increase in intracellular NAD+, relative to NRH ([15]; NRH at 10 μM): 50 fold
NAD+ levels in liver, muscle and kidney [5]: increased
NR in circulation after NRH treatment ([5]; mouse, in vivo, ip): much higher levels than those detected after NR injection itself
NRH in circulation ([5]; mouse, in vivo, ip): detectable
NAM levels in circulation ([5]; mouse, in vivo, ip, 500 mg/kg): only a very mild increase
degradation to NAM [6]: did not degrade to NAM
capacity as extracellular NAD+ precursor under ENT blockade [16]: largely lost its capacity as an extracellular NAD+ precursor

O=C(OC[C@H]1O[C@@H](OC(=O)c2cc(O)c(O)c(OC(=O)c3cc(O)c(O)c(O)c3)c2)[C@H](OC(=O)c2cc(O)c(O)c(OC(=O)c3cc(O)c(O)c(O)c3)c2)[C@@H](OC(=O)c2cc(O)c(O)c(OC(=O)c3cc(O)c(O)c(O)c3)c2)[C@@H]1OC(=O)c1cc(O)c(O)c(OC(=O)c2cc(O)c(O)c(O)c2)c1)c1cc(O)c(O)c(OC(=O)c2cc(O)c(O)c(O)c2)c1 [gallotannin]
effect of NMNAT inhibitor on NAD+ synthesis after NRH treatment [17]: largely compromised NAD+ synthesis after NRH treatment
NRH action after gallotannin treatment ([17]; NRH at maximal doses (0.5 mM)): part of the NRH action remained
NRH action after gallotannin treatment ([17]; NRH at submaximal doses): totally blocked
